Experiments:
Test in all cases: relative viability (nuclei count vs DMSO), 5 days (fraction); higher = more cells survive
RU-SKI 43 + OSI-027 = compound: CC[C@@H](C)CNCC(=O)N1CCC2=C([C@@H]1COC3=CC=CC(=C3)C)C=CS2 [RU-SKI 43] + COc1cccc2cc(-c3nc([C@H]4CC[C@H](C(=O)O)CC4)n4ncnc(N)c34)[nH]c12 [OSI-027] (partner 0.5 µM)
Method in brief: (§1)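 Medians of duplicate plates are given as relative viability. That measure is the nuclei count in treated wells divided by the count in vehicle wells. Counts were taken on 4× images of lung cancer cell lines in 1536-well plates, 5 days after pin-tool dosing the day after seeding with one drug alone or a fixed anchor-drug dose plus five library-drug doses (not always all listed) in √10 steps.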

RU-SKI 43 + Dasatinib = compound: CC[C@@H](C)CNCC(=O)N1CCC2=C([C@@H]1COC3=CC=CC(=C3)C)C=CS2 [RU-SKI 43] + Cc1nc(Nc2ncc(C(=O)Nc3c(C)cccc3Cl)s2)cc(N2CCN(CCO)CC2)n1 [Dasatinib] (partner 0.075 µM)
Method in brief: as §1

Irinotecan + Trametinib = compound: CCc1c2c(nc3ccc(OC(=O)N4CCC(N5CCCCC5)CC4)cc13)-c1cc3c(c(=O)n1C2)COC(=O)[C@]3(O)CC [Irinotecan] + CC(=O)Nc1cccc(-n2c(=O)n(C3CC3)c(=O)c3c(Nc4ccc(I)cc4F)n(C)c(=O)c(C)c32)c1 [Trametinib] (partner 0.02 µM)
Method in brief: as §1

Irinotecan + Phenformin = compound: CCc1c2c(nc3ccc(OC(=O)N4CCC(N5CCCCC5)CC4)cc13)-c1cc3c(c(=O)n1C2)COC(=O)[C@]3(O)CC [Irinotecan] + N=C(N)NC(=N)NCCc1ccccc1 [Phenformin] (partner 250 µM)
Method in brief: as §1

Cell Line NCI-H2126 has a relative viability (RU-SKI 43 + OSI-027; first compound 0.1 µM) of 0.681, a relative viability (RU-SKI 43 + OSI-027; first compound 0.3162 µM) of 0.627 and a relative viability (RU-SKI 43 + OSI-027; first compound 1 µM) of 0.777. The relative viability (RU-SKI 43 + OSI-027; first compound 3.162 µM) was 0.678, the relative viability (RU-SKI 43 + OSI-027; first compound 10 µM) was 0.715 and the relative viability (RU-SKI 43 + Dasatinib; first compound 0.1 µM) was 0.65. For the same cell line, the relative viability (RU-SKI 43 + Dasatinib; first compound 0.3162 µM) was 0.652, the relative viability (RU-SKI 43 + Dasatinib; first compound 1 µM) was 0.681 and the relative viability (RU-SKI 43 + Dasatinib; first compound 3.162 µM) was 0.67. It also gave a relative viability (RU-SKI 43 + Dasatinib; first compound 10 µM) of 0.586, a relative viability (Irinotecan + Trametinib; first compound 0.6325 µM) of 0.546 and a relative viability (Irinotecan + Trametinib; first compound 2 µM) of 0.347. The relative viability (Irinotecan + Trametinib; first compound 6.325 µM) was 0.273, the relative viability (Irinotecan + Trametinib; first compound 20 µM) was 0.304 and the relative viability (Irinotecan + Phenformin; first compound 2 µM) was 0.53. For the same cell line, the relative viability (Irinotecan + Phenformin; first compound 6.325 µM) was 0.355 and the relative viability (Irinotecan + Phenformin; first compound 20 µM) was 0.285.
NCI-H596 gave a relative viability (RU-SKI 43 + OSI-027; first compound 0.1 µM) of 0.823, a relative viability (RU-SKI 43 + OSI-027; first compound 0.3162 µM) of 0.729 and a relative viability (RU-SKI 43 + OSI-027; first compound 1 µM) of 0.871. For the same cell line, the relative viability (RU-SKI 43 + OSI-027; first compound 3.162 µM) was 0.764, the relative viability (RU-SKI 43 + OSI-027; first compound 10 µM) was 0.607 and the relative viability (RU-SKI 43 + Dasatinib; first compound 0.1 µM) was 0.635. For the same cell line, the relative viability (RU-SKI 43 + Dasatinib; first compound 0.3162 µM) was 0.646, the relative viability (RU-SKI 43 + Dasatinib; first compound 1 µM) was 0.62 and the relative viability (RU-SKI 43 + Dasatinib; first compound 3.162 µM) was 0.653. For the same cell line, the relative viability (RU-SKI 43 + Dasatinib; first compound 10 µM) was 0.587, the relative viability (Irinotecan + Trametinib; first compound 0.6325 µM) was 0.86 and the relative viability (Irinotecan + Trametinib; first compound 2 µM) was 0.731. The relative viability (Irinotecan + Trametinib; first compound 6.325 µM) was 0.682, the relative viability (Irinotecan + Trametinib; first compound 20 µM) was 0.758 and the relative viability (Irinotecan + Phenformin; first compound 0.6325 µM) was 0.699. The relative viability (Irinotecan + Phenformin; first compound 2 µM) was 0.83, the relative viability (Irinotecan + Phenformin; first compound 6.325 µM) was 0.784 and the relative viability (Irinotecan + Phenformin; first compound 20 µM) was 0.745.
Work on NCI-H3122 yielded a relative viability (RU-SKI 43 + OSI-027; first compound 0.1 µM) of 1.02, a relative viability (RU-SKI 43 + OSI-027; first compound 0.3162 µM) of 1.23 and a relative viability (RU-SKI 43 + OSI-027; first compound 1 µM) of 1.31. The relative viability (RU-SKI 43 + OSI-027; first compound 3.162 µM) was 1.01, the relative viability (RU-SKI 43 + OSI-027; first compound 10 µM) was 0.96 and the relative viability (RU-SKI 43 + Dasatinib; first compound 0.1 µM) was 0.959. It also gave a relative viability (RU-SKI 43 + Dasatinib; first compound 0.3162 µM) of 0.913, a relative viability (RU-SKI 43 + Dasatinib; first compound 1 µM) of 0.806 and a relative viability (RU-SKI 43 + Dasatinib; first compound 3.162 µM) of 0.778. The relative viability (RU-SKI 43 + Dasatinib; first compound 10 µM) was 0.838, the relative viability (Irinotecan + Trametinib; first compound 0.6325 µM) was 0.192 and the relative viability (Irinotecan + Trametinib; first compound 2 µM) was 0.146. For the same cell line, the relative viability (Irinotecan + Trametinib; first compound 6.325 µM) was 0.111, the relative viability (Irinotecan + Trametinib; first compound 20 µM) was 0.108 and the relative viability (Irinotecan + Phenformin; first compound 0.6325 µM) was 0.364. For the same cell line, the relative viability (Irinotecan + Phenformin; first compound 2 µM) was 0.341, the relative viability (Irinotecan + Phenformin; first compound 6.325 µM) was 0.235 and the relative viability (Irinotecan + Phenformin; first compound 20 µM) was 0.088.
NCI-H727 showed a relative viability (RU-SKI 43 + OSI-027; first compound 0.1 µM) of 0.553, a relative viability (RU-SKI 43 + OSI-027; first compound 0.3162 µM) of 0.642 and a relative viability (RU-SKI 43 + OSI-027; first compound 1 µM) of 0.559. For the same cell line, the relative viability (RU-SKI 43 + OSI-027; first compound 3.162 µM) was 0.565, the relative viability (RU-SKI 43 + OSI-027; first compound 10 µM) was 0.455 and the relative viability (RU-SKI 43 + Dasatinib; first compound 0.1 µM) was 0.438. The relative viability (RU-SKI 43 + Dasatinib; first compound 0.3162 µM) was 0.285, the relative viability (RU-SKI 43 + Dasatinib; first compound 1 µM) was 0.426 and the relative viability (RU-SKI 43 + Dasatinib; first compound 3.162 µM) was 0.473. The relative viability (RU-SKI 43 + Dasatinib; first compound 10 µM) was 0.307, the relative viability (Irinotecan + Trametinib; first compound 0.6325 µM) was 0.373 and the relative viability (Irinotecan + Trametinib; first compound 2 µM) was 0.336. For the same cell line, the relative viability (Irinotecan + Trametinib; first compound 6.325 µM) was 0.382, the relative viability (Irinotecan + Trametinib; first compound 20 µM) was 0.346 and the relative viability (Irinotecan + Phenformin; first compound 0.6325 µM) was 0.464. The relative viability (Irinotecan + Phenformin; first compound 2 µM) was 0.611, the relative viability (Irinotecan + Phenformin; first compound 6.325 µM) was 0.524 and the relative viability (Irinotecan + Phenformin; first compound 20 µM) was 0.413.
In the case of NCI-H1355, the relative viability (RU-SKI 43 + OSI-027; first compound 0.1 µM) is reported as 0.408, the relative viability (RU-SKI 43 + OSI-027; first compound 0.3162 µM) is reported as 0.378 and the relative viability (RU-SKI 43 + OSI-027; first compound 1 µM) is reported as 0.486. For the same cell line, the relative viability (RU-SKI 43 + OSI-027; first compound 3.162 µM) was 0.428, the relative viability (RU-SKI 43 + OSI-027; first compound 10 µM) was 0.442 and the relative viability (RU-SKI 43 + Dasatinib; first compound 0.1 µM) was 0.674. For the same cell line, the relative viability (RU-SKI 43 + Dasatinib; first compound 0.3162 µM) was 0.868, the relative viability (RU-SKI 43 + Dasatinib; first compound 1 µM) was 0.781 and the relative viability (RU-SKI 43 + Dasatinib; first compound 3.162 µM) was 0.761. The relative viability (RU-SKI 43 + Dasatinib; first compound 10 µM) was 0.739, the relative viability (Irinotecan + Trametinib; first compound 2 µM) was 0.399 and the relative viability (Irinotecan + Trametinib; first compound 6.325 µM) was 0.239. For the same cell line, the relative viability (Irinotecan + Trametinib; first compound 20 µM) was 0.22, the relative viability (Irinotecan + Phenformin; first compound 2 µM) was 0.46 and the relative viability (Irinotecan + Phenformin; first compound 6.325 µM) was 0.278. The relative viability (Irinotecan + Phenformin; first compound 20 µM) was 0.248.
For NCI-H1792, the relative viability (RU-SKI 43 + OSI-027; first compound 0.1 µM) was 0.682, the relative viability (RU-SKI 43 + OSI-027; first compound 0.3162 µM) was 1.05 and the relative viability (RU-SKI 43 + OSI-027; first compound 1 µM) was 0.969. It also gave a relative viability (RU-SKI 43 + OSI-027; first compound 3.162 µM) of 0.939, a relative viability (RU-SKI 43 + OSI-027; first compound 10 µM) of 0.707 and a relative viability (RU-SKI 43 + Dasatinib; first compound 0.1 µM) of 0.772. For the same cell line, the relative viability (RU-SKI 43 + Dasatinib; first compound 0.3162 µM) was 1.03, the relative viability (RU-SKI 43 + Dasatinib; first compound 1 µM) was 0.739 and the relative viability (RU-SKI 43 + Dasatinib; first compound 3.162 µM) was 0.892. For the same cell line, the relative viability (RU-SKI 43 + Dasatinib; first compound 10 µM) was 0.845, the relative viability (Irinotecan + Trametinib; first compound 0.6325 µM) was 0.356 and the relative viability (Irinotecan + Trametinib; first compound 2 µM) was 0.532. It also gave a relative viability (Irinotecan + Trametinib; first compound 6.325 µM) of 0.225, a relative viability (Irinotecan + Trametinib; first compound 20 µM) of 0.205 and a relative viability (Irinotecan + Phenformin; first compound 0.6325 µM) of 0.273. It also gave a relative viability (Irinotecan + Phenformin; first compound 2 µM) of 0.424, a relative viability (Irinotecan + Phenformin; first compound 6.325 µM) of 0.314 and a relative viability (Irinotecan + Phenformin; first compound 20 µM) of 0.28.
With NCI-H661 the relative viability (RU-SKI 43 + OSI-027; first compound 0.1 µM) was 0.721, the relative viability (RU-SKI 43 + OSI-027; first compound 0.3162 µM) was 0.808 and the relative viability (RU-SKI 43 + OSI-027; first compound 1 µM) was 0.724. For the same cell line, the relative viability (RU-SKI 43 + OSI-027; first compound 3.162 µM) was 0.694, the relative viability (RU-SKI 43 + OSI-027; first compound 10 µM) was 0.68 and the relative viability (RU-SKI 43 + Dasatinib; first compound 0.1 µM) was 0.923. The relative viability (RU-SKI 43 + Dasatinib; first compound 0.3162 µM) was 0.964, the relative viability (RU-SKI 43 + Dasatinib; first compound 1 µM) was 0.931 and the relative viability (RU-SKI 43 + Dasatinib; first compound 3.162 µM) was 0.83. It also gave a relative viability (RU-SKI 43 + Dasatinib; first compound 10 µM) of 0.843, a relative viability (Irinotecan + Trametinib; first compound 0.6325 µM) of 0.464 and a relative viability (Irinotecan + Trametinib; first compound 2 µM) of 0.524. The relative viability (Irinotecan + Trametinib; first compound 6.325 µM) was 0.535, the relative viability (Irinotecan + Trametinib; first compound 20 µM) was 0.209 and the relative viability (Irinotecan + Phenformin; first compound 0.6325 µM) was 0.254. The relative viability (Irinotecan + Phenformin; first compound 2 µM) was 0.329, the relative viability (Irinotecan + Phenformin; first compound 6.325 µM) was 0.277 and the relative viability (Irinotecan + Phenformin; first compound 20 µM) was 0.191.

Reference: the supplement of paper PMC10307832
